Assay results taken from the supplement of paper PMC10307832.

Assays:
Test in all cases: relative viability (nuclei count vs DMSO), 5 days (fraction); higher = more cells survive
Navitoclax = compound: CC1(C)CCC(c2ccc(Cl)cc2)=C(CN2CCN(c3ccc(C(=O)NS(=O)(=O)c4ccc(N[C@H](CCN5CCOCC5)CSc5ccccc5)c(S(=O)(=O)C(F)(F)F)c4)cc3)CC2)C1 [Navitoclax]
In short: (§1)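 Only plates meeting two conditions passed: control CV below 25% and at least one doubling. Lung cancer cell lines, kept overnight at 37 °C in 1536-well plates, were pinned with five library-drug doses (not always all listed) √10 apart on vehicle-anchored plates and grown 5 days without medium change. A one-step fix, permeabilisation and Hoechst stain preceded 4× imaging and MetaXpress nuclear counting. Viability equals treated-well nuclei divided by vehicle-well nuclei, as the median over plates.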

C-75 = compound: CCCCCCCC[C@H]1[C@@H](C(=C)C(=O)O1)C(=O)O [C-75]
In short: as §1

AZD7762 = compound: NC(=O)Nc1cc(-c2cccc(F)c2)sc1C(=O)N[C@H]1CCCNC1 [AZD7762]
In short: as §1

[1] = compound: O=C(O)c1ccc(-c2c[nH]c3ncc(-c4ccccc4)cc23)cc1C1CCCC1
In short: as §1

XAV939 = compound: Oc1nc(-c2ccc(C(F)(F)F)cc2)nc2c1CSCC2 [XAV939]
In short: as §1

Cell Line | relative viability (Navitoclax; 0.005 µM) | relative viability (Navitoclax; 0.01581 µM) | relative viability (Navitoclax; 0.05 µM) | relative viability (Navitoclax; 0.1581 µM) | relative viability (Navitoclax; 0.5 µM) | relative viability (Navitoclax; 0.5 µM, anchor plate) | relative viability (C-75; 0.08 µM) | relative viability (C-75; 0.253 µM) | relative viability (C-75; 0.8 µM) | relative viability (C-75; 2.53 µM) | relative viability (C-75; 8 µM) | relative viability (AZD7762; 0.01 µM) | relative viability (AZD7762; 0.03162 µM) | relative viability (AZD7762; 0.1 µM) | relative viability (AZD7762; 0.2 µM, anchor plate) | relative viability (AZD7762; 0.3162 µM) | relative viability (AZD7762; 1 µM) | relative viability ([1]; 0.04 µM) | relative viability ([1]; 0.1265 µM) | relative viability ([1]; 0.4 µM) | relative viability ([1]; 1.265 µM) | relative viability (XAV939; 0.08 µM) | relative viability (XAV939; 0.253 µM) | relative viability (XAV939; 0.8 µM) | relative viability (XAV939; 2.53 µM)
LOU-NH91 | 1.01 | 1 | 0.921 | 0.865 | 0.513 | 0.718 | 0.959 | 0.977 | 0.862 | 0.778 | 0.969 | 0.941 | 1.1 | 0.975 | 0.784 | 0.894 | 0.775 | 0.934 | 1.14 | 0.975 | 0.915 | 0.979 | 0.868 | 0.954 | 0.953
LU99A | 0.916 | 1.13 | 0.933 | 1.03 | 1.04 | 0.839 | 1 | 0.928 | 0.97 | 0.834 | 0.858 | 0.943 | 1.1 | 0.995 | 0.356 | 0.986 | 0.414 | 0.958 | 0.941 | 0.894 | 0.65 | 0.78 | 0.827 | 0.939 | 1.02
LXF-289 | 0.974 | 0.989 | 0.884 | 0.99 | 0.972 | 0.949 | 0.958 | 0.95 | 0.983 | 0.862 | 1.02 | 0.963 | 1.02 | 1.05 | 1.1 | 0.979 | 1.07 | 0.969 | 0.967 | 0.876 | 0.703 | 1 | 0.94 | 0.998 | 1.03
NCI-H23 | 0.925 | 0.979 | 0.98 | 0.896 | 0.962 | 0.869 | 0.897 | 1.07 | 0.867 | 0.687 | 0.44 | 0.866 | 1.07 | 0.993 | 0.273 | 0.693 | 0.278 | 0.947 | 1.22 | 0.812 | 0.699 | 0.973 | 0.796 | 0.982 | 0.838
NCI-H322M | 1.03 | 1.1 | 0.926 | 0.974 | 1.06 | 1.24 | 0.964 | 1.22 | 0.905 | 0.839 | 0.952 | 0.956 | 1.06 | 0.928 | 0.589 | 0.683 | 0.397 | 1.01 | 1.02 | 0.956 | 0.886 | 1.03 | 0.835 | 0.852 | 0.655
NCI-H358 | 1.01 | 1.2 | 0.961 | 0.985 | 0.977 |  | 0.849 | 0.896 | 0.874 | 0.854 | 0.693 | 1.02 | 1.13 | 0.878 | 0.536 | 0.758 | 0.444 | 0.893 | 1.17 | 0.88 | 0.611 | 0.795 | 0.77 | 0.857 | 0.777
